# Data taken from patent US20240124418A1 (BioTheryX, Inc., priority 2020, published 2024).
# System: TNF-α
# Assay: Cell-based TNF-α inhibition assay (LPS-induced PBMCs, Meso Scale)
# Conditions: PBMC, PBMCs pretreated 1 h, LPS 100 ng/mL 18-24 h, percentage of stimulated DMSO control; for inhibition at 0.1 µM: compound concentration 0.1 μM; for inhibition at 1 µM: compound concentration 1 μM
# Description: Example B1. Cell-Based TNF-α Inhibition Assay
# Frozen primary blood mononuclear cells (PBMCs) were quick thawed, washed once with RPMI 1640 media supplemented with 10% fetal bovine serum, 1% penicillin, and 1% streptomycin, and plated in a 96 well plate at 200,000 cells per well. The cells were pretreated with DMSO only as a control or a compound for 1 h, and then induced with LPS (lipopolysaccharide) (100 ng/mL) for 18-24 h. The supernatant was analyzed for TNF-α using the Meso Scale assay. Compound activity was determined as a percentage of the stimulated DMSO control. The results are summarized in Table 1, where A represents a percent inhibition value ≥60%; B represents a percent inhibition value <60% and ≥40%; C represents a percent inhibition value <40% and ≥20%; and D represents a single percent inhibition value <20%.
smiles,measurement,value
"CCOc1cc([C@@H](CS(C)(=O)=O)N2C(=O)c3cccc(NC(=O)CCCc4cn(CCNCc5ccc(OCc6scc7c6CN(C6CCC(=O)NC6=O)C7=O)cc5)nn4)c3C2=O)ccc1OC (stereo partly drawn) [Compound A48, 4-[1-(2-{[(4-{[5-(2,6-Dioxopiperidin-3-yl)-4-oxo-4H,5H,6H-thieno[3,4-c]pyrrol-1-yl]methoxy}phenyl)methyl]amino}ethyl)-1H-1,2,3-triazol-4-yl]-N-{2-[(1S)-1-(3-ethoxy-4-methoxyphenyl)-2-methanesulfonylethyl]-1,3-dioxo-2,3-dihydro-1H-isoindol-4-yl}butanamide]",inhibition at 0.1 µM,40 to 60%
same,inhibition at 1 µM,≥ 60%
"CCOc1cc([C@@H](CS(C)(=O)=O)N2C(=O)c3cccc(CCCCCCCCCCNCc4ccc(OCc5scc6c5CN(C5CCC(=O)NC5=O)C6=O)cc4)c3C2=O)ccc1OC (stereo partly drawn) [Compound A49, 4-(10-{[(4-{[5-(2,6-Dioxopiperidin-3-yl)-4-oxo-4H,5H,6H-thieno[3,4-c]pyrrol-1-yl]methoxy}phenyl)methyl]amino}decyl)-2-[(1S)-1-(3-ethoxy-4-methoxyphenyl)-2-methanesulfonylethyl]-2,3-dihydro-1H-isoindole-1,3-dione]",inhibition at 0.1 µM,≥ 60%
same,inhibition at 1 µM,≥ 60%
"CCOc1cc([C@@H](CS(C)(=O)=O)N2C(=O)c3cccc(OCCCCCCCCCNCc4ccc(OCc5scc6c5CN(C5CCC(=O)NC5=O)C6=O)cc4)c3C2=O)ccc1OC (stereo partly drawn) [Compound A50, 4-[(9-{[(4-{[5-(2,6-Dioxopiperidin-3-yl)-4-oxo-4H,5H,6H-thieno[3,4-c]pyrrol-1-yl]methoxy}phenyl)methyl]amino}nonyl)oxy]-2-[(1S)-1-(3-ethoxy-4-methoxyphenyl)-2-methane-sulfonylethyl]-2,3-dihydro-1H-isoindole-1,3-dione]",inhibition at 0.1 µM,≥ 60%
same,inhibition at 1 µM,≥ 60%
"CCOc1cc([C@@H](CS(C)(=O)=O)N2C(=O)c3cccc(NCCc4ccc(CCCCNCc5ccc(OCc6scc7c6CN(C6CCC(=O)NC6=O)C7=O)cc5)cc4)c3C2=O)ccc1OC (stereo partly drawn) [Compound A51, 4-({2-[4-(4-{[(4-{[5-(2,6-Dioxopiperidin-3-yl)-4-oxo-4H,5H,6H-thieno[3,4-c]-pyrrol-1-yl]methoxy}phenyl)methyl]amino}butyl)phenyl]ethyl}amino)-2-[(1S)-1-(3-ethoxy-4-methoxyphenyl)-2-methanesulfonylethyl]-2,3-dihydro-1H-isoindole-1,3-dione]",inhibition at 0.1 µM,≥ 60%
same,inhibition at 1 µM,≥ 60%
"CCOc1cc([C@@H](CS(C)(=O)=O)N2C(=O)c3cc(CCCCCCCCCCCCC(=O)N[C@H](C(=O)N4C[C@H](O)C[C@H]4C(=O)NCc4ccc(-c5scnc5C)cc4)C(C)(C)C)cc(NC(C)=O)c3C2=O)ccc1OC [Compound A61, (2S,4R)-1-[(2S)-2-(13-{7-Acetamido-2-[(1S)-1-(3-ethoxy-4-methoxyphenyl)-2-methanesulfonylethyl]-1,3-dioxo-2,3-dihydro-1H-isoindol-5-yl}tridecanamido)-3,3-dimethylbutanoyl]-4-hydroxy-N-{[4-(4-methyl-1,3-thiazol-5-yl)phenyl]methyl}pyrrolidine-2-carboxamide]",inhibition at 0.1 µM,≥ 60%
same,inhibition at 1 µM,≥ 60%
"CCOc1cc([C@@H](CS(C)(=O)=O)N2C(=O)c3cccc(CCCCCCCCCCC(=O)N[C@H](C(=O)N4C[C@H](O)C[C@H]4C(=O)NCc4ccc(-c5scnc5C)cc4)C(C)(C)C)c3C2=O)ccc1OC [Compound A62, (2S,4R)-1-[(2S)-2-(11-{2-[(1S)-1-(3-Ethoxy-4-methoxyphenyl)-2-methanesulfonylethyl]-1,3-dioxo-2,3-dihydro-1H-isoindol-4-yl}undecanamido)-3,3-dimethylbutanoyl]-4-hydroxy-N-{[4-(4-methyl-1,3-thiazol-5-yl)phenyl]methyl}pyrrolidine-2-carboxamide]",inhibition at 0.1 µM,≥ 60%
same,inhibition at 1 µM,≥ 60%
"CCOc1cc([C@@H](CS(C)(=O)=O)N2C(=O)c3cccc(NC(=O)CCCCN4CCN(CC(=O)N[C@H](C(=O)N5C[C@H](O)C[C@H]5C(=O)NCc5ccc(-c6scnc6C)cc5)C(C)(C)C)CC4)c3C2=O)ccc1OC [Compound A63, (2S,4R)-1-[(2S)-2-(2-{4-[4-({2-[(1S)-1-(3-Ethoxy-4-methoxyphenyl)-2-methanesulfonylethyl]-1,3-dioxo-2,3-dihydro-1H-isoindol-4-yl}carbamoyl)butyl]piperazin-1-yl}acet-amido)-3,3-dimethylbutanoyl]-4-hydroxy-N-{[4-(4-methyl-1,3-thiazol-5-yl)phenyl]methyl}-pyrrolidine-2-carboxamide]",inhibition at 0.1 µM,≥ 60%
same,inhibition at 1 µM,≥ 60%
"CCOc1cc([C@@H](CS(C)(=O)=O)N2C(=O)c3cccc(NC(=O)CCCCCCCCCCC(=O)N[C@H](C(=O)N4C[C@H](O)C[C@H]4C(=O)NCc4ccc(-c5scnc5C)cc4)C(C)(C)C)c3C2=O)ccc1OC [Compound A64, N-{2-[(1S)-1-(3-Ethoxy-4-methoxyphenyl)-2-methanesulfonylethyl]-1,3-dioxo-2,3-dihydro-1H-isoindol-4-yl}-N′-[(2S)-1-[(2S,4R)-4-hydroxy-2-({[4-(4-methyl-1,3-thiazol-5-yl)phenyl]methyl}carbamoyl)pyrrolidin-1-yl]-3,3-dimethyl-1-oxobutan-2-yl]dodecanediamide]",inhibition at 0.1 µM,≥ 60%
same,inhibition at 1 µM,≥ 60%
"CCOc1cc([C@@H](CS(C)(=O)=O)N2C(=O)c3cccc(NC(=O)CCCCCCCCCN[C@H](C(=O)N4C[C@H](O)C[C@H]4C(=O)NCc4ccc(-c5scnc5C)cc4)C(C)(C)C)c3C2=O)ccc1OC [Compound A65, (2S,4R)-1-[(2S)-2-{[9-({2-[(1S)-1-(3-Ethoxy-4-methoxyphenyl)-2-methanesulfonylethyl]-1,3-dioxo-2,3-dihydro-1H-isoindol-4-yl}carbamoyl)nonyl]amino}-3,3-dimethylbutanoyl]-4-hydroxy-N-{[4-(4-methyl-1,3-thiazol-5-yl)phenyl]methyl}pyrrolidine-2-carboxamide]",inhibition at 0.1 µM,≥ 60%
same,inhibition at 1 µM,≥ 60%
"CCOc1cc([C@@H](CS(C)(=O)=O)N2C(=O)c3cccc(NCC(=O)N4CCN(CCCCC(=O)N[C@H](C(=O)N5C[C@H](O)C[C@H]5C(=O)NCc5ccc(-c6scnc6C)cc5)C(C)(C)C)CC4)c3C2=O)ccc1OC [Compound A66, (2S,4R)-1-[(2S)-2-(5-{4-[2-({2-[(1S)-1-(3-Ethoxy-4-methoxyphenyl)-2-methanesulfonylethyl]-1,3-dioxo-2,3-dihydro-1H-isoindol-4-yl}amino)acetyl]piperazin-1-yl}pentan-amido)-3,3-dimethylbutanoyl]-4-hydroxy-N-{[4-(4-methyl-1,3-thiazol-5-yl)phenyl]methyl}-pyrrolidine-2-carboxamide]",inhibition at 0.1 µM,40 to 60%
same,inhibition at 1 µM,≥ 60%
"CCOc1cc([C@@H](CS(C)(=O)=O)N2C(=O)c3cccc(NC(=O)CCCCCCCCOc4cc(-c5scnc5C)ccc4CNC(=O)[C@@H]4C[C@@H](O)CN4C(=O)[C@@H](NC(C)=O)C(C)(C)C)c3C2=O)ccc1OC [Compound A74, (2S,4R)-1-[(2S)-2-Acetamido-3,3-dimethylbutanoyl]-N-[(2-{[8-({2-[(1S)-1-(3-ethoxy-4-methoxyphenyl)-2-methanesulfonylethyl]-1,3-dioxo-2,3-dihydro-1H-isoindol-4-yl}-carbamoyl)octyl]oxy}-4-(4-methyl-1,3-thiazol-5-yl)phenyl)methyl]-4-hydroxypyrrolidine-2-carboxamide]",inhibition at 0.1 µM,≥ 60%
same,inhibition at 1 µM,≥ 60%
